Patent US7067700B2, “Process for preparing sertraline hydrochloride polymorphic form II” (Fermion Oy, priority 2001, dated 2006)
Counter-ions that a name gives are not always drawn.

What was measured:
[1] = dissolution / solubility of sertraline hydrochloride polymorphic forms; assay type: physicochemical; settings: comparison of polymorphic forms; statement in words
[2] = stability of sertraline hydrochloride polymorphic forms; assay type: physicochemical; settings: statement in words
[3] = claimed in the cited patent; cited from earlier work
[4] = claimed in the cited patent; cited from earlier work; remark: listed apart in the source

Compound	dissolution properties [1]	stability of the polymorph (comparison of forms) ([2]; compared with form II)	stability of the polymorph ([2]; form II prepared by the method described, no test described)	solubility in aqueous fluids as claimed in U.S. Pat. No. 5,734,083 [3]	stability as claimed in U.S. Pat. No. 5,734,083 [4]
CN[C@H]1CC[C@@H](c2ccc(Cl)c(Cl)c2)c2ccccc21.Cl [Form I]	poor dissolution properties	more stable	–	–	–
CNC1CCC(c2ccc(Cl)c(Cl)c2)c2ccccc21 (stereo not drawn) [(1S-cis)-4-(3,4-dichlorophenyl)-1,2,3,4-tetrahydro-N-methyl-1-naphtalenamine hydrochloride]	–	–	stable	–	–
CN[C@H]1CC[C@@H](c2ccc(Cl)c(Cl)c2)c2ccccc21.Cl [Polymorphic form T1]	dissolves better than forms I and II	–	–	enhanced solubility	acceptable stable
